Here are results for eight molecules from ChEMBL document CHEMBL1128808, “Dioxolane cytosine nucleosides as anti-hepatitis B agents” (Bioorg Med Chem Lett, 1995).

Assay [1] has as its system CCRF-CEM. In words: Compound was evaluated for cytotoxicity by inhibition of mitochondrial DNA synthesis. The assay is classed as functional, cell-based. The note with it: Homo sapiens.
In assay [2] the test system is CCRF-CEM. In words: Cytotoxicity in H1 CEM cells. The assay is classed as functional, cell-based. The note with it: Homo sapiens.
A further assay concerns Hepatoma cell line. Briefly: Antiviral activity against hepatitis B virus in human hepatoma cell line (2.2.15 cells). It counts as functional, cell-based.
A short description of assay [3]: Selectivity measured as the ratio between IC50 value and EC50 value. It counts as functional.

Regarding `Nc1ccn([C@@H]2CS[C@H](CO)O2)c(=O)n1` [LAMIVUDINE], the 50% inhibitory concentration (IC50) in the assay with CCRF-CEM [1] and in the assay on CCRF-CEM [2] was 50 µM each time. A half-maximal effect in the assay on Hepatoma cell line (EC50) was put at 0.01 µM.

On to `Nc1ccn([C@H]2CO[C@@H](CO)O2)c(=O)n1`, for which the IC50 (usually the midpoint of a concentration-inhibition curve) is greater than 10 µM in the assay with CCRF-CEM [1] and 2.4 µM in the assay with CCRF-CEM [2]. Also, in the assay on Hepatoma cell line, the EC50 (in general, the midpoint of the concentration-response curve) was found to be 0.01 µM. For the same molecule, in assay [3], the Selectivity was 240.

On to `O=c1[nH]c(=O)n([C@H]2CO[C@@H](CO)O2)cc1Br`, for which the EC50 in the assay on Hepatoma cell line is greater than 5 µM.

In the case of `O=c1ccn([C@H]2CO[C@@H](CO)O2)c(=O)[nH]1`, in the assay with Hepatoma cell line, the EC50 was greater than 20 µM.

Turning to `Nc1ccn([C@H]2CO[C@H](CO)O2)c(=O)n1`, the IC50 in the assay on CCRF-CEM [1] and with CCRF-CEM [2] was greater than 50 µM each time. Further, in the assay on Hepatoma cell line, the EC50 was greater than 5 µM.

In the assay with Hepatoma cell line, `O=c1[nH]c(=O)n([C@H]2CO[C@@H](CO)O2)cc1F` showed an EC50 greater than 5 µM.

`Nc1ccn([C@@H]2CO[C@@H](CO)O2)c(=O)n1` displayed a 50% effective concentration (EC50) with Hepatoma cell line of 5 µM.

`Nc1ccn([C@@H]2CO[C@H](CO)O2)c(=O)n1` [TROXACITABINE]: the IC50 is greater than 1 µM in the assay with CCRF-CEM [1] and 0.056 µM in the assay with CCRF-CEM [2]. Also, the concentration for a half-maximal effect (EC50) with Hepatoma cell line was 0.0005 µM.
